Measurements reported in US20240116985A1, “STAPLED PEPTIDES AND METHODS THEREOF” (priority 2020, published 2024).
≈ marks a conversion by molar mass, not a printed value. Read-outs that look alike come from different tables or passages of the source.

How the values were obtained:
[1] = CHI Log D procedure; type: physicochemical
[2] = Solubility in PBS; type: physicochemical
Outline: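 PBS sample ultracentrifuged; supernatant run on HPLC vs. 50 μM peptide in DMSO standard. Solubility = (PBS peak area / DMSO peak area) × 50 uM.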

[3] = biological target: T1, beta-catenin/TCF4 engagement (Homo sapiens, UniProt P35222); experiment: Nano-BRET target engagement assay (B-cat-Halo & TCF4-Luc in HEK293 cells); type: cell-based; conditions: for inhibition at 10 µM: read-out: NanoBRET % inh @ 10 uM; for IC50: absolute IC50
T1 construct: expressed in transfected cells; host or cells: HEK293
T1 sequence (P35222 1-781): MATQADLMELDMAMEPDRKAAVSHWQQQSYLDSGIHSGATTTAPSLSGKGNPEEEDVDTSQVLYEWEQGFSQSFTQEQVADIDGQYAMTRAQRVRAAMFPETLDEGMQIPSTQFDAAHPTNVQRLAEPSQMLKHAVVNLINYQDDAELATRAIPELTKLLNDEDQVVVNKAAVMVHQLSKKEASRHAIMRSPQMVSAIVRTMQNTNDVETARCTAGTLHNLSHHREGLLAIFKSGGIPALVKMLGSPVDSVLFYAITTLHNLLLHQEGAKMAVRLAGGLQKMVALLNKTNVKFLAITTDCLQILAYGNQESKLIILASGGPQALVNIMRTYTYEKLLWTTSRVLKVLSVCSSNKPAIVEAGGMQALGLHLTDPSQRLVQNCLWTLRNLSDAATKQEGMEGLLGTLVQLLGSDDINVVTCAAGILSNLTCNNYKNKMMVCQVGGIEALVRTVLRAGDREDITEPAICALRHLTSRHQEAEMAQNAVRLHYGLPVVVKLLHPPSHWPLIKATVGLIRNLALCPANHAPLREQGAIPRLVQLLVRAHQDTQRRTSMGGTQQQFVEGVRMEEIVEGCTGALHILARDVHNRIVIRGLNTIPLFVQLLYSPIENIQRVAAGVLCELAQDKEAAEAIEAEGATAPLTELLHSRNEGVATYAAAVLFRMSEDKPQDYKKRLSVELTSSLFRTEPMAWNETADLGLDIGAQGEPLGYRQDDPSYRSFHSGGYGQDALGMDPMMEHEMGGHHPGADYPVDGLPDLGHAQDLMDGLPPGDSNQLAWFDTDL

[4] = biological target: T2, full-length beta-Catenin (Uniprot ID P35222) (Homo sapiens, UniProt P35222); experiment: Fluorescence polarization IC50 (beta-catenin / 5FAM-TCF4 10-53 competition); type: binding
T2 construct: 10 nM full-length beta-Catenin (Uniprot ID P35222)
T2 sequence (P35222 1-781): T1 sequence (P35222 1-781)

[5] = fluorescence polarization, read-out: beta-Catenin FP IC50
[6] = fluorescence polarization, beta-catenin, read-out: FP EC50

Row | Compound | Solubility [2] [µM] | IC50 [4, 5] [nM] | chromatographic logD ([1]; pH 7.4, CHI Log D) | Solubility ([2]; Solubility (uM)) [µM] | other results
1 | CC(=O)N1CCC[C@]12CC=CCCCC1(CCCC=CCCCCCC[C@@](C)(C(=O)N[C@@H](Cc3ccccc3)C(=O)N[C@@H](C)C(=O)N[C@@H](CCC(N)=O)C(N)=O)NC(=O)[C@H](C(C)C)NC(=O)[C@H](Cc3ccccc3)NC(=O)[C@H](C)NC(=O)[C@H](C)NC(=O)[C@H](CC(=O)O)NC(=O)[C@H](CC(=O)O)NC1=O)NC(=O)[C@H](C)NC(=O)[C@H](CC(=O)O)NC2=O (stereo partly drawn) [I-357, Ac-PL3-Asp-Ala-B5-Asp-Asp-Ala-Ala-Phe-Val-S8-Phe-Ala-Gln-NH2] | 46 (≈ 76.6 µg/mL) | – | – | – | CHI Log D ([1]; pH 7.4): 1.852; inhibition at 10 µM ([3]; HEK293, 10 uM): -5.3%
2 | CC[C@H](C)[C@@H]1NC(=O)[C@H](CC(=O)O)NC(=O)[C@]2(CC=CCCCC3(CCCC=CCCCCCC[C@@](C)(C(=O)N[C@@H](Cc4ccccc4)C(=O)N[C@@H](Cc4csc5ccccc45)C(=O)N[C@@H](CCC(N)=O)C(N)=O)NC(=O)[C@H](CCC(N)=O)NC(=O)[C@H](Cc4ccccc4)NC(=O)[C@H](C)NC(=O)[C@H](C)NC(=O)[C@H](CCC(=O)O)NC(=O)[C@H](CC(=O)O)NC3=O)NC1=O)CCCN2C(C)=O (stereo partly drawn) [I-407, Ac-PL3-Asp-Ile-B5-Asp-Glu-Ala-Ala-Phe-Gln-S8-Phe-BztA-Gln-NH2] | 50 (≈ 94.2 µg/mL) | 30 | 2.39 | – | inhibition at 10 µM ([3]; HEK293, @ 10 uM): 55.1%
3 | COc1ccccc1C[C@H](NC(=O)[C@]1(C)CCCCCCC=CCCCC2(CCCC=CC[C@]3(CCCN3C(C)=O)C(=O)N[C@@H](CC(=O)O)C(=O)N[C@@H](C)C(=O)N2)C(=O)N[C@@H](CC(=O)O)C(=O)N[C@@H](CCC(=O)O)C(=O)N[C@@H](C)C(=O)N[C@@H](C)C(=O)N[C@@H](Cc2ccccc2)C(=O)N[C@@H](CC(N)=O)C(=O)N1)C(=O)N[C@@H](Cc1csc2ccccc12)C(=O)N[C@@H](CCC(N)=O)C(N)=O (stereo partly drawn) [I-437, Ac-PL3-Asp-Ala-B5-Asp-Glu-Ala-Ala-Phe-Asn-S8-2OMeF-BztA-Gln-NH2] | – | 26 | 2 | 44 (≈ 81.7 µg/mL) | IC50 ([3]; read-out: NanoBRET Abs IC50): 17.5 µM
4 | CC(=O)N1CCC[C@]12CC=CCCCC1(CCCC=CCCCOC(=O)N3CC[C@@](C(=O)N[C@@H](Cc4ccccc4)C(=O)N[C@@H](Cc4csc5ccccc45)C(=O)N[C@@H](CCC(N)=O)C(N)=O)(C3)NC(=O)[C@H](CC(N)=O)NC(=O)[C@H](Cc3ccccc3)NC(=O)[C@H](C)NC(=O)[C@H](C)NC(=O)[C@H](CCC(=O)O)NC(=O)[C@H](CC(=O)O)NC1=O)NC(=O)[C@H](C)NC(=O)[C@H](CC(=O)O)NC2=O (stereo partly drawn) [I-462, Ac-PL3-Asp-Ala-B5-Asp-Glu-Ala-Ala-Phe-Asn-PyrS2-Phe-BztA-Gln-NH2] | – | 28 | 1.76 | 49 (≈ 91.6 µg/mL) | IC50 ([3]; read-out: NanoBRET Abs IC50): > 20 µM
5 | C[C@@H]1NC(=O)[C@H](C)NC(=O)[C@H](CN(CC(=O)O)CC(F)(F)F)NC(=O)[C@H](CC(=O)O)NC(=O)C2(CCCC=CCCCOC(=O)N3CC[C@@](C(=O)N[C@@H](Cc4ccsc4)C(=O)N[C@@H](Cc4csc5ccccc45)C(=O)N[C@@H](CCC(N)=O)C(N)=O)(C3)NC(=O)[C@H](CC(N)=O)NC(=O)[C@H](Cc3ccccc3)NC1=O)CCCC=CC[C@]1(CCCN1C(=O)CN=[N+]=[N-])C(=O)N[C@@H](CC(=O)O)C(=O)N[C@@H](CC(C)(C)C)C(=O)N2 (stereo partly drawn) [I-1054, AzAc-PL3-Asp-Npg-B5-Asp-TfeGA-Ala-Ala-Phe-Asn-PyrS2-3Thi-BztA-Gln-NH2] | 46 (≈ 95.2 µg/mL) | – | – | – | chromatographic logD ([1]; pH 7.4): 2.19; IC50 ([3]; NanoBRET Abs IC50 (uM)): > 20 µM
6 | CC(=O)N1CCC[C@]12CC=CCCCC1(CCCC=CCCCOC(=O)N3CC[C@@](C(=O)N[C@@H](Cc4ccccc4Cl)C(=O)N[C@@H](Cc4csc5ccccc45)C(=O)N[C@@H](CO)C(N)=O)(C3)NC(=O)[C@H](CC(C)C)NC(=O)[C@H](Cc3ccccc3)NC(=O)[C@H](C)NC(=O)[C@H](C)NC(=O)[C@H](CC(=O)O)NC(=O)[C@H](CC(=O)O)NC1=O)NC(=O)[C@H](Cc1cccc3ccccc13)NC(=O)[C@H](CC(=O)O)NC2=O (stereo partly drawn) [I-1116, Ac-PL3-Asp-1NapA-B5-Asp-Asp-Ala-Ala-Phe-Leu-PyrS2-2C1F-BztA-Ser-NH2] | – | – | 2.62 | 13 (≈ 25.7 µg/mL) | IC50 ([4]; read-out: beta-Catenin FP IC50): 40 nM
7 | CC(=O)N1CCC[C@]12CC=CCCCC1(CCCC=CCCCOC(=O)N3CC[C@@](C(=O)N[C@@H](Cc4ccccc4Cl)C(=O)N[C@@H](Cc4csc5ccccc45)C(=O)N[C@@H](CO)C(N)=O)(C3)NC(=O)[C@H](CC(C)C)NC(=O)[C@H](Cc3ccccc3)NC(=O)[C@H](C)NC(=O)[C@H](C)NC(=O)[C@H](CC(=O)O)NC(=O)[C@H](CC(=O)O)NC1=O)NC(=O)[C@H](Cc1ccc3ccccc3c1)NC(=O)[C@H](CC(=O)O)NC2=O (stereo partly drawn) [I-1117, Ac-PL3-Asp-2NapA-B5-Asp-Asp-Ala-Ala-Phe-Leu-PyrS2-2C1F-BztA-Ser-NH2] | 10 (≈ 19.7 µg/mL) | – | 2.61 | – | IC50 ([4]; read-out: beta-Catenin FP IC50): 55 nM
8 | CC(=O)N1CCC[C@]12CC=CCCCC1(CCCC=CCCCOC(=O)N3CC[C@@](C(=O)N[C@@H](Cc4ccccc4)C(=O)N[C@@H](Cc4csc5ccccc45)C(=O)N[C@@H](CCC(N)=O)C(N)=O)(C3)NC(=O)[C@H](CC(C)C)NC(=O)[C@H](Cc3ccc(C(F)(F)F)cc3)NC(=O)[C@H](C)NC(=O)[C@H](C)NC(=O)[C@H](CC(=O)O)NC(=O)[C@H](CC(=O)O)NC1=O)NC(=O)[C@H](CC(C)(C)C)NC(=O)[C@H](CC(=O)O)NC2=O (stereo partly drawn) [I-1129, Ac-PL3-Asp-Npg-B5-Asp-Asp-Ala-Ala-4F3MeF-Leu-PyrS2-Phe-BztA-Gln-NH2] | – | – | 2.33 | 29 (≈ 57.4 µg/mL) | IC50 ([4]; read-out: beta-Catenin FP IC50): 39 nM
9 | CC(=O)N1CCC[C@]12CC=CCCCC1(CCCC=CCCCOC(=O)N3CC[C@@](C(=O)N[C@@H](Cc4ccsc4)C(=O)N[C@@H](Cc4csc5ccccc45)C(=O)N[C@@H](CCC(N)=O)C(N)=O)(C3)NC(=O)[C@H](CC(N)=O)NC(=O)[C@H](Cc3ccccc3)NC(=O)[C@H](C)NC(=O)[C@H](C)NC(=O)[C@H](CC(=O)O)NC(=O)[C@H](CC(=O)O)NC1=O)NC(=O)[C@H](CC(C)(C)C)NC(=O)C[C@H](CC(=O)O)NC2=O (stereo partly drawn) [I-1159, Ac-PL3-RbGlu-Npg-B5-Asp-Asp-Ala-Ala-Phe-Asn-PyrS2-3Thi-BztA-Gln-NH2] | – | 61 | 1.88 | 45 (≈ 86.9 µg/mL) | –
10 | CC(=O)N1CCC[C@]12CC=CCCCC1(CCCC=CCCCCCC[C@@](C)(C(=O)N[C@@H](Cc3ccsc3)C(=O)N[C@@H](Cc3csc4ccccc34)C(=O)N[C@@H](CCC(N)=O)C(N)=O)NC(=O)[C@H](CC(N)=O)NC(=O)[C@H](Cc3ccccc3)NC(=O)[C@H](C)NC(=O)[C@H](C)NC(=O)[C@H](CC(=O)O)NC(=O)[C@H](CC(=O)O)NC1=O)NC(=O)[C@H](CC(C)(C)C)NC(=O)C[C@H](CC(=O)O)NC2=O (stereo partly drawn) [I-1163, Ac-PL3-RbGlu-Npg-B5-Asp-Asp-Ala-Ala-Phe-Asn-S8-3Thi-BztA-Gln-NH2] | 48 (≈ 90.7 µg/mL) | 691 | – | – | IC50 [4, 6]: 691 nM; CHI Log D ([1]; pH 7.4): 2.059
11 | CC(=O)N1CCC[C@]12CC=CCCCC1(CCCC=CCCCCCC[C@@](C)(C(=O)N[C@@H](Cc3ccsc3)C(=O)N[C@@H](Cc3csc4ccccc34)C(=O)N[C@@H](CCC(N)=O)C(N)=O)NC(=O)[C@H](CC(N)=O)NC(=O)[C@H](Cc3ccccc3)NC(=O)[C@H](C)NC(=O)[C@H](C)NC(=O)[C@H](CC(=O)O)NC(=O)[C@H](CC(=O)O)NC1=O)NC(=O)[C@H](CC(C)(C)C)NC(=O)C[C@H](CC(=O)O)NC2=O (stereo partly drawn) [I-1164, Ac-PL3-RbGlu-Npg-B5-Asp-Asp-Ala-Ala-Phe-Asn-S8-3Thi-BztA-Gln-NH2] | 50 (≈ 94.5 µg/mL) | 162 | – | – | IC50 [4, 6]: 162 nM; CHI Log D ([1]; pH 7.4): 2.13
